According to patent publication US20240246918A1, “COMPOUNDS AND COMPOSITIONS AS EIF4E INHIBITORS AND THE USES THEREOF” (Ribometrix, Inc., priority 2022, published 2024):

How the values were obtained:
[1] = system: cap-dependent translation in Flp-In-293 reporter cells; test: Cellular cap-dependent translation inhibition assay (dual luciferase assay, DLA; Fluc/Rluc ratio, 24 hours); type: cell-based; conditions: Homo sapiens, Flp-In-293, 24 h, dual luciferase assay, Flp-In-293 reporter cells, 24 hours, Fluc/Rluc ratio; read-out: DLA 205 IC50
human eIF4E protein = target: T1, human eIF4E protein (Homo sapiens, UniProt P06730); test: Biochemical competitive binding assay (TR-FRET competition, EDA-m7GDP-ATTO-647N probe); conditions: read-out: hEIF4E TR-FRET IC50
T1 construct: purchased Novus NBP-45314
How it was run: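 His-tagged human eIF4E (4 nM) was preincubated with Eu-anti-His antibody (2.5 nM) and added to compound (11-point, 4-fold dilutions) for 15 min. Then 5 nM EDA-m7GDP-ATTO-647N was added for 15 min, in HEPES pH 7.5, 100 mM KCl. The 665/620 TR-FRET ratio was normalized to controls, and IC50 was taken from 4-parameter fits.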

[2] = system: COLO 205 colorectal tumor cells; test: Tumor cell viability inhibition assay (CellTiter-Glo 2.0, 72 hours); type: cell-based; conditions: Homo sapiens, COLO 205, 72 h, COLO 205 cell viability
How it was run: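 COLO 205 cells (1500/well, RPMI-1640 + 10% FBS) exposed for 72 h to an 11-point, 4-fold dilution series; cellular ATP read by CellTiter-Glo 2.0 luminescence. Data normalized to DMSO and maximum-inhibition controls; IC50 from 4-parameter curve fit.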

T1 sequence (P06730 whole entry): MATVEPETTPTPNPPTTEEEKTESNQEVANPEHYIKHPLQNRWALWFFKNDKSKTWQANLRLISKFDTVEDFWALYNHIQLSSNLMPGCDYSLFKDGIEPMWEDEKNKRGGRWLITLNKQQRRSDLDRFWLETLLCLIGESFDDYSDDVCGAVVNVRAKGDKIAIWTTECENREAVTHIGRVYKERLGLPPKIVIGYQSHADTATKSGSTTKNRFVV

Q: With `Cc1cc(-c2cc(Cl)ccc2OCCn2c(C)nc3c(c2=O)CC(N2CCCCC2)CC3)c2ccc(C(=O)NS(C)(=O)=O)n2n1` (stereo not drawn) [Compound 62, 4-[5-chloranyl-2-[2-[2-methyl-4-oxidanylidene-6-(1-piperidyl)-5,6,7,8-tetrahydroquinazolin-3-yl]ethoxy]phenyl]-2-methyl-N-methylsulfonyl-pyrrolo[1,2-b]pyridazine-7-carboxamide] as the compound, how does the IC50 [1] read?
A: < 1 µM

Q: And the IC50 (human eIF4E protein)?
A: < 0.1 µM

Q: What about the IC50 [2] of the same compound?
A: < 5 µM

Q: With `Cc1cc(-c2cc(Cl)ccc2OCCn2c(C)nc3c(c2=O)CC(N(C)C2CC(F)(F)C2)CC3)c2scc(C(=O)NS(C)(=O)=O)c2n1` (stereo not drawn) [Compound 63] as the compound, how does the IC50 [1] read?
A: < 1 µM

Q: What about the IC50 (human eIF4E protein) of the same compound?
A: < 0.1 µM

Q: What about the IC50 [2] of the same compound?
A: < 5 µM

Q: Which results are given for `Cc1cc(-c2cc(Cl)ccc2OCCn2c(C)nc3c(c2=O)CC(N(C)C2CN(CC(F)(F)F)C2)CC3)c2scc(C(=O)O)c2n1` (stereo not drawn) [Compound 64, 7-[5-chloranyl-2-[2-[2-methyl-6-[methyl-[1-[2,2,2-tris(fluorenyl)ethyl]azetidin-3-yl]amino]-4-oxidanylidene-5,6,7,8-tetrahydroquinazolin-3-yl]ethoxy]phenyl]-5-methyl-thieno[3,2-b]pyridine-3-carboxylic acid; 2,2,2-tris(fluorenyl)acetic acid]?
A: IC50 [1]: < 1 µM; IC50 (human eIF4E protein): < 0.1 µM; IC50 [2]: < 5 µM

Q: Which results are given for `Cc1cc(-c2cc(Cl)ccc2OCCn2c(C)nc3c(c2=O)CC(N(C)CC(F)F)CC3)c2scc(C(=O)NS(C)(=O)=O)c2n1` (stereo not drawn) [Compound 65]?
A: IC50 [1]: < 1 µM; IC50 (human eIF4E protein): < 0.1 µM; IC50 [2]: < 5 µM

Q: For `Cc1cc(-c2cc(Cl)ccc2OCCn2c(C)nc3c(c2=O)CC(N(C)C2CNC2)CC3)c2scc(C(=O)O)c2n1` (stereo not drawn) [Compound 66, 7-[2-[2-[6-[azetidin-3-yl(methyl)amino]-2-methyl-4-oxidanylidene-5,6,7,8-tetrahydroquinazolin-3-yl]ethoxy]-5-chloranyl-phenyl]-5-methyl-thieno[3,2-b]pyridine-3-carboxylic acid; 2,2,2-tris(fluorenyl)acetic acid], which IC50 [1] is on record?
A: > 5 µM

Q: And the IC50 (human eIF4E protein)?
A: < 0.1 µM

Q: And the IC50 [2]?
A: > 20 µM

Q: What does the source list for `Cc1cc(-c2cc(Cl)ccc2OCCn2c(C)nc3c(c2=O)CC(N(C)Cc2ccncc2)CC3)c2scc(C(=O)NS(C)(=O)=O)c2n1` (stereo not drawn) [Compound 68]?
A: IC50 [1]: < 1 µM; IC50 (human eIF4E protein): < 0.1 µM; IC50 [2]: < 5 µM

Q: What does the source list for `Cc1cc(-c2cc(Cl)ccc2OCCn2c(C)nc3c(c2=O)CC(N(C)C2CCCCC2)CC3)c2scc(C(=O)O)c2n1` (stereo not drawn) [Compound 69]?
A: IC50 [1]: < 1 µM; IC50 (human eIF4E protein): < 0.1 µM; IC50 [2]: < 5 µM

Q: `Cc1cc(-c2cc(Cl)ccc2OCCn2c(C)nc3c(c2=O)CC(N(C)C(=O)C2CCN(CC(F)(F)F)CC2)CC3)c2scc(C(=O)O)c2n1` (stereo not drawn) [Compound 71] was tested. Which IC50 [1] did it give?
A: > 5 µM

Q: And the IC50 (human eIF4E protein)?
A: < 0.1 µM

Q: What about the IC50 [2] of the same compound?
A: > 20 µM

Q: Which results are given for `Cc1cc(-c2cc(Cl)ccc2OCCn2c(C)nc3c(c2=O)CC(N(C)C(=O)C2CN(CC(F)(F)F)C2)CC3)c2scc(C(=O)O)c2n1` (stereo not drawn) [Compound 72]?
A: IC50 [1]: > 5 µM; IC50 (human eIF4E protein): < 0.1 µM; IC50 [2]: > 20 µM

Q: Which IC50 [1] does the source give for `Cc1cc(-c2cc(Cl)ccc2OCCn2c(C)nc3c(c2=O)CC(N(C)C(=O)C2CN(C)C2)CC3)c2scc(C(=O)O)c2n1` (stereo not drawn) [Compound 73] here?
A: > 5 µM

Q: What about the IC50 (human eIF4E protein) of the same compound?
A: < 0.1 µM

Q: What about the IC50 [2] of the same compound?
A: > 20 µM

Q: Which IC50 [1] does the source give for `Cc1cc(-c2cc(Cl)ccc2OCCn2c(C)nc3c(c2=O)CC(N(C)C(=O)C2CCN(C)CC2)CC3)c2scc(C(=O)O)c2n1` (stereo not drawn) [Compound 74] here?
A: > 5 µM

Q: And the IC50 (human eIF4E protein)?
A: < 0.1 µM

Q: What about the IC50 [2] of the same compound?
A: > 20 µM

Q: Which results are given for `Cc1cc(-c2cc(Cl)ccc2OCCn2c(C)nc3c(c2=O)CC(N(C)Cc2ccncc2)CC3)c2sccc2n1` (stereo not drawn) [Compound 75]?
A: IC50 [1]: > 5 µM; IC50 (human eIF4E protein): 0.5 to 5 µM; IC50 [2]: 5 to 20 µM

Q: What does the source list for `Cc1cc(-c2cc(Cl)ccc2OCCn2c(C)nc3c(c2=O)CC(N(C2CC2)C2CC(F)(F)C2)CC3)c2scc(C(=O)O)c2n1` (stereo not drawn) [Compound 76]?
A: IC50 [1]: < 1 µM; IC50 (human eIF4E protein): < 0.1 µM; IC50 [2]: < 5 µM

Q: With `Cc1cc(-c2cc(Cl)ccc2OCCn2c(C)nc3c(c2=O)CC(N(C)C2CCOCC2)CC3)c2scc(C(=O)O)c2n1` (stereo not drawn) [Compound 77] as the compound, how does the IC50 [1] read?
A: < 1 µM

Q: And the IC50 (human eIF4E protein)?
A: < 0.1 µM

Q: And the IC50 [2]?
A: 5 to 20 µM
